Measurements reported in ChEMBL document CHEMBL5665443, “Enzyme Inhibitor Single Concentration assay results for EUbOPEN Chemogenomics Library” (2024).

Tests used:
[1] = molecular target: Methyl-CpG-binding domain protein 4 (Homo sapiens) (UniProt O95243); details: Hit No;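 also: MBD4 activity read as fluorescence at 594 nm from cleavage and release of a quenched duplex DNA oligonucleotide, with APE1 coupled to incise the strand and raise turnover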
[2] = molecular target: T1, Adenine DNA glycosylase (Homo sapiens) (UniProt Q9UIF7); details: Hit No;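 also: human MUTYH activity read as 594 nm fluorescence from cleavage and release of a quenched DNA duplex, coupled with APE1 for strand incision, lower signal meaning inhibition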
T1 sequence (whole entry): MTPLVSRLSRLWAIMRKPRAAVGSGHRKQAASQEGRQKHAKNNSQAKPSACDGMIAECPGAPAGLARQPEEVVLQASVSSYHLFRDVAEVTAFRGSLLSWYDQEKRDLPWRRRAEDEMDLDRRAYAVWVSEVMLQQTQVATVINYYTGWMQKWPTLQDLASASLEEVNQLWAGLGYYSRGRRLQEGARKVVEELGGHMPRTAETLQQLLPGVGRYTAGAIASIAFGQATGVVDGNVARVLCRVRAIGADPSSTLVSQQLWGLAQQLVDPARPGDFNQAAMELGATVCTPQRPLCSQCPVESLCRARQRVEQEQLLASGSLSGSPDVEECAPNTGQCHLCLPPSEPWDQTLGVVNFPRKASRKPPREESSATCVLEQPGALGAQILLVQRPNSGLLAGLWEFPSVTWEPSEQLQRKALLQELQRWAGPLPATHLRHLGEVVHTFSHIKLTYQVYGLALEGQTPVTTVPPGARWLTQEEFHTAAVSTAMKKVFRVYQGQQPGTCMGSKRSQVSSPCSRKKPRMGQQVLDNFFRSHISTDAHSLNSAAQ

[3] = molecular target: Endonuclease 8-like 1 (Homo sapiens) (UniProt Q96FI4); details: Hit No;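 also: fluorescence at 594 nm from quenched duplex DNA oligonucleotides released by NEIL1 cleavage and strand separation, reported as reduction of this enzyme activity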
Endonuclease 8-like 1 (Homo sapiens), sequence (Q96FI4 whole entry): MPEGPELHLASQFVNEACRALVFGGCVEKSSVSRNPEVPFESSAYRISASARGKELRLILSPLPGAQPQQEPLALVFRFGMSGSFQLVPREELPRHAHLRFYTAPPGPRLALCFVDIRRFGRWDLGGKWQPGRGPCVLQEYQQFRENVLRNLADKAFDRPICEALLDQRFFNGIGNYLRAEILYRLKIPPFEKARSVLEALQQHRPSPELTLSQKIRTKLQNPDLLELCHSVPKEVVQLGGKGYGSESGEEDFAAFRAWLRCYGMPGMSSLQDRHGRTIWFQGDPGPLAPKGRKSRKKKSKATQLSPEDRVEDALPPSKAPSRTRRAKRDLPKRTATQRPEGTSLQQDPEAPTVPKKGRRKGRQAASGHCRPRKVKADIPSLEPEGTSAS

[4] = molecular target: T2, Endonuclease 8-like 2 (Homo sapiens) (UniProt Q969S2); details: Hit No;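 also: fluorescence at 594 nm reports NEIL2 cutting and release of a quenched double-stranded DNA oligo substrate, reduced signal read as inhibition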
T2 sequence (whole entry): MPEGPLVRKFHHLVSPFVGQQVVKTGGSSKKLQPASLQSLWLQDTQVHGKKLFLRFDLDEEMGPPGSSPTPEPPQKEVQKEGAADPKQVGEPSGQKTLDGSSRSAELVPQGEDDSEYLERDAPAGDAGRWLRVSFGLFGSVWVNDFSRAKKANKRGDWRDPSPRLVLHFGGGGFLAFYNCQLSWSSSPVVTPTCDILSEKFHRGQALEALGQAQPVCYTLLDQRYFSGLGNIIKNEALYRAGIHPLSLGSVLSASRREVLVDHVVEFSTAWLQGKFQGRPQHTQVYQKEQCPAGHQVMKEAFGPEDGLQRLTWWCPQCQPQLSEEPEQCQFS

[5] = molecular target: T3, Endonuclease III-like protein 1 (Homo sapiens) (UniProt P78549); details: Hit No;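 also: enzyme assay tracking NTHL1 cutting and release of a quenched double-stranded DNA oligo substrate, read as fluorescence at 594 nm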
T3 sequence (whole entry): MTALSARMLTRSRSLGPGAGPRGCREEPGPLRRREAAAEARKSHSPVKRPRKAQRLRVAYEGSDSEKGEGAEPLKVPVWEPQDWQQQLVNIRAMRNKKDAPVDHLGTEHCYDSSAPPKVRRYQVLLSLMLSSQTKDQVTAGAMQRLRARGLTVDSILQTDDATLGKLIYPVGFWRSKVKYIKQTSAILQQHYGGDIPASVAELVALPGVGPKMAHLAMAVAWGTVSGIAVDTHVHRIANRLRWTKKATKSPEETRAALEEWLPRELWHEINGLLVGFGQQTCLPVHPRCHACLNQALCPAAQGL

[6] = molecular target: N-glycosylase/DNA lyase (Homo sapiens) (UniProt O15527);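 also: OGG1 cleavage of a quenched duplex DNA oligonucleotide, coupled to APE1 for strand incision, read as fluorescence at 594 nm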
N-glycosylase/DNA lyase (Homo sapiens), sequence (O15527 whole entry): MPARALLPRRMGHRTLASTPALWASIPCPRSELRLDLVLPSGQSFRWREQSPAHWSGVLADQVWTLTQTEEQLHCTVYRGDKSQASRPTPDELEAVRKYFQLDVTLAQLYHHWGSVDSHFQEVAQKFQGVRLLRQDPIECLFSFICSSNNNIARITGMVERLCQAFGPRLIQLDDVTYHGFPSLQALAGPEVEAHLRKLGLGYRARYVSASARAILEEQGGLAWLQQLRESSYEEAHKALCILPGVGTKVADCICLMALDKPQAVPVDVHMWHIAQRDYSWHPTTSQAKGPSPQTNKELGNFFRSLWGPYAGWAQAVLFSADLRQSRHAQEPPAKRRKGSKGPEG

[7] = molecular target: T4, Single-strand selective monofunctional uracil DNA glycosylase (Homo sapiens) (UniProt Q53HV7); details: Hit No;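 also: enzymatic SMUG1 assay coupled with APE1, reading fluorescence at 594 nm released when a quenched double-stranded DNA oligonucleotide substrate is cleaved and separated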
T4 sequence (whole entry): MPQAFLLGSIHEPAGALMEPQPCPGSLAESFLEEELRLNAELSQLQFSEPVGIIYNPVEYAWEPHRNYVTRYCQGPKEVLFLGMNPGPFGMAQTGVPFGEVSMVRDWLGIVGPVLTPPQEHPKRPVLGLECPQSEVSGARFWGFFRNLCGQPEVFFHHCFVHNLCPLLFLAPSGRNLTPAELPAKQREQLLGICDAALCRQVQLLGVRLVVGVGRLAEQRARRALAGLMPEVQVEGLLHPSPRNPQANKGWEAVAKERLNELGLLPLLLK

[8] = molecular target: G/T mismatch-specific thymine DNA glycosylase (Homo sapiens) (UniProt Q13569); details: Hit No;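 also: human TDG cleavage of quenched duplex DNA oligonucleotides coupled to APE1, strand release read as fluorescence at 594 nm, inhibition of TDG activity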
G/T mismatch-specific thymine DNA glycosylase (Homo sapiens), sequence (Q13569 whole entry): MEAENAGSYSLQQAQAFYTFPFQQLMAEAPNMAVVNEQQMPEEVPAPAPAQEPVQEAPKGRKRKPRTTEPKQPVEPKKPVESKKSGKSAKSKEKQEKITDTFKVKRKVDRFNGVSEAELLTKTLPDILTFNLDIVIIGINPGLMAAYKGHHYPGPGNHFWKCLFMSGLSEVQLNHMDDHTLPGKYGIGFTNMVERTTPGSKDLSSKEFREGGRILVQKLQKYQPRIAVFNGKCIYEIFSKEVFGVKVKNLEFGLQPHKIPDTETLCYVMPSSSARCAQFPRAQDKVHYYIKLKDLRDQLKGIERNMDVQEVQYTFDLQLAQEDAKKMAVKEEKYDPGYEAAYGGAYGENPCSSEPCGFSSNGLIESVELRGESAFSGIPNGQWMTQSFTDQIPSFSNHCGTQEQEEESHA

[9] = molecular target: Uracil-DNA glycosylase (Homo sapiens) (UniProt P13051); details: Hit No;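 also: UNG excision on a quenched double-stranded DNA oligo probe, with APE1 added for strand incision and turnover, read as fluorescence at 594 nm as strands separate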
Uracil-DNA glycosylase (Homo sapiens), sequence (P13051 whole entry): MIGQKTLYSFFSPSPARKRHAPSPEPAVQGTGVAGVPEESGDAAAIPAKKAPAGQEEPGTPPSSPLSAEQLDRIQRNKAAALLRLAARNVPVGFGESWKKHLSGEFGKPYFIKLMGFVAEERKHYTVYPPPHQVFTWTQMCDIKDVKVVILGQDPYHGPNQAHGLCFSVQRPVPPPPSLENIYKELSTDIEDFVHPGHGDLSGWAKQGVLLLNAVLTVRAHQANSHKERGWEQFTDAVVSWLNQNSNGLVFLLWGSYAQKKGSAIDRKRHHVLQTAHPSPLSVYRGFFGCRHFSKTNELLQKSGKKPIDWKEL

[10] = Compound Concentration 1.0 uM, Hit No
[11] = Compound Concentration 10.0 uM, Hit No

Methyl-CpG-binding domain protein 4 (Homo sapiens), sequence (O95243 whole entry, the tested form may be a part): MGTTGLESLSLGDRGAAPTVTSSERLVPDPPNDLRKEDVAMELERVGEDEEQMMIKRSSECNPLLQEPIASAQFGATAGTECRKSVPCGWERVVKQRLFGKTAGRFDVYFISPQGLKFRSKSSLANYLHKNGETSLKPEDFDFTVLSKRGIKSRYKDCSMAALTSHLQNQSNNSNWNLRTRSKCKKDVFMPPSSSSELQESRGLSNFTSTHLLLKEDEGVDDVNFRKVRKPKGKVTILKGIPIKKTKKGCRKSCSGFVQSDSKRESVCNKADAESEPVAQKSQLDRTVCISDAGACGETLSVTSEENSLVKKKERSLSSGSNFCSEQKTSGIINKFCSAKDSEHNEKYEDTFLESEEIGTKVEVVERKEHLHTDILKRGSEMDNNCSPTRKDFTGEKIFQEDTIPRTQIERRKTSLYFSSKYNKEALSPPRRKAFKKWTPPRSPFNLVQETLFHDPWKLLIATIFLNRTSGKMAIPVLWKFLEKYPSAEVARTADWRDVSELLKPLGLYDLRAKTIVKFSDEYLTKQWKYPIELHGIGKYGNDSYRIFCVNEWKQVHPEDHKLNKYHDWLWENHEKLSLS

| SMILES | inhibition ([1]; Compound Concentration 1.0 uM) [%] | inhibition ([2]; Compound Concentration 1.0 uM) [%] | inhibition ([3]; Compound Concentration 1.0 uM) [%] | inhibition ([4]; Compound Concentration 1.0 uM) [%] | inhibition ([5]; Compound Concentration 1.0 uM) [%] | inhibition [6, 10] [%] | inhibition ([7]; Compound Concentration 1.0 uM) [%] | inhibition ([8]; Compound Concentration 1.0 uM) [%] | inhibition ([9]; Compound Concentration 1.0 uM) [%] | inhibition ([1]; Compound Concentration 10.0 uM) [%] | inhibition ([2]; Compound Concentration 10.0 uM) [%] | inhibition ([3]; Compound Concentration 10.0 uM) [%] | inhibition ([4]; Compound Concentration 10.0 uM) [%] | inhibition ([5]; Compound Concentration 10.0 uM) [%] | inhibition [6, 11] [%] | inhibition ([7]; Compound Concentration 10.0 uM) [%] | inhibition ([8]; Compound Concentration 10.0 uM) [%] | inhibition ([9]; Compound Concentration 10.0 uM) [%] | inhibition ([6]; Compound Concentration 10.0 uM, Hit Yes) [%] |
| --- | --- | --- | --- | --- | --- | --- | --- | --- | --- | --- | --- | --- | --- | --- | --- | --- | --- | --- | --- |
| O=C(NOCC1CC1)c1ccc(F)c(F)c1Nc1ccc(I)cc1Cl | 41.9 | 4.86 | -9.77 | -7.84 | 15.4 | 1.82 | 8.89 | 57 | -3 |  |  |  |  |  |  |  |  |  |  |
| C=C(C)[C@H]1CN[C@H](C(=O)O)[C@H]1CC(=O)O |  |  |  |  |  |  |  |  |  | 2.41 | 8.87 | -4.88 | -3.66 | -1.08 | -6.14 | -0.636 | -2.38 | -5.09 |  |
| CCCCN(Cc1ccccc1)C(=O)c1ccc(S(=O)(=O)Nc2ccccc2)cc1 |  |  |  |  |  |  |  |  |  | -4.89 | 28.5 | -9.37 | -10 | 2.88 | 15.6 | 26.3 | 61.1 | 2.05 |  |
| Cc1ccccc1Oc1cc(-n2c(=O)cc(C(F)(F)F)[nH]c2=O)c2ccccc2c1Cl |  |  |  |  |  |  |  |  |  | 68.2 | 0.715 | 7.74 | -1.25 | -1.29 | 50.6 | 29.1 | 54.4 | -2.65 |  |
| Cc1c(N2CCNCC2)nc2ccc(Br)cc2c1C(=O)NC[C@H](CCC(=O)O)c1ccccc1Cl |  |  |  |  |  |  |  |  |  | 54.3 | 16.7 | -1.8 | 0.276 | -7.86 | -2.82 | 15 | 41.3 | 3.28 |  |
| CCCCN(CCCC)C(=O)CN1C[C@@H](c2cc(OC)c3c(c2)OCO3)[C@H](C(=O)O)[C@H]1CC(C)(C)CCC |  |  |  |  |  |  |  |  |  | 63.4 | -4.04 | -6.35 | -4.32 | -7.2 | 44.6 | 23.9 | 46 | 4.65 |  |
| CN(C)C(=O)Cn1cc(-c2ccc(-c3cncc4ccccc34)cc2)cn1 | 30 | 5.04 | -4.09 | -1.92 | -6.19 | -1.89 | 16.6 | 40.2 | 0.741 |  |  |  |  |  |  |  |  |  |  |
| CCCCCCCN(CCc1ccc(SC(C)(C)C(=O)O)cc1)C(=O)Nc1ccc(F)cc1F |  |  |  |  |  |  |  |  |  | 74.5 | 26 | -8.92 | -7.12 | 5.29 | 44.6 | 26.9 | 50.5 | 3.11 |  |
| CCO[C@H](COc1ccc(C(F)(F)F)cc1)CSc1ccc(OCC(=O)O)c(C)c1 |  |  |  |  |  |  |  |  |  | 71.4 | 16.2 | -4.99 | 3.59 | -4.57 | 20.8 | 20.8 | 59.2 | 6.42 |  |
| Cc1ccc(-c2cnc([C@@]3(O)CC[C@H](C(=O)O)C(C)(C)C3)s2)cc1Nc1cccc(C(F)(F)F)n1 | 1.64 |  | -1.05 | 1.58 | -6.89 |  | 6.55 | 36.9 | -2.23 | 60.9 | 13.4 | -8.92 |  | -1.95 | 5.44 | 11.6 | 58.3 | 2.77 |  |
| CC[C@@H](Nc1c(C#N)c(-c2ccc(-c3cccc(C)c3F)cc2)nc2cnccc12)C(=O)O |  |  |  |  |  |  |  |  |  | 42.6 | 24.5 | -1.4 | 3.25 | 2.05 | 31.6 | 12.3 | 49.5 | 2.5 |  |
| CN(C)c1ncc2cc(-c3ccc(-c4ncccc4F)cc3Cl)c(=O)n(C[C@H]3OC[C@H](N)CO3)c2n1 |  |  |  |  |  |  |  |  |  | -0.894 | 13.7 | 2.65 | 1.58 | -1.31 | -0.214 | 26.9 | 41.3 | 6.12 |  |
| CC(C)c1onc(-c2c(Cl)cccc2Cl)c1COc1ccc(/C=C/c2cccc(C(=O)O)c2)c(Cl)c1 |  |  |  |  |  |  |  |  |  | 58.8 | 0.66 | -5.29 | -6.36 | 12.5 |  | 19.5 | 100 | 4.8 | 103 |
| Cc1cn([C@@H](C)CC#N)c(=O)c2cc(Cn3nc(C(F)F)cc3Cl)nn12 |  |  |  |  |  |  |  |  |  | 56.2 | 0.387 | -0.442 | 0.0213 | 5.29 | 9.38 | 19.8 | 99.3 | 2.85 |  |
| COc1cc(-c2cn[nH]c2)ccc1C(=O)Nc1ccc2c(c1)CCNCC2 |  |  |  |  |  |  |  |  |  | 13.6 | -0.48 | -5.41 | 3.2 | -8.28 | 2.14 | 20.2 | 37.4 | 2.84 |  |
